The values that follow come from patent US20200223839A1, “FLUORO-CONTAINING COMPOUNDS, USE AND PREPARATION THEREOF” (JIANGSU YINGKEBEITA YIYAOKEJI CO. LTD, priority 2017, published 2020).

One data set has as its system PC-3. Description: Cytotoxicity assay by the CTG method, PC-3. It is filed as cell-based. Particulars: Homo sapiens, PC-3, Prostate cancer, 72 h. The protocol:
(§1) The corresponding cells were harvested from flask into cell culture medium and the cell number were counted. The cells were diluted with culture medium to the desired density and 40 μL of cell suspension was added into each well of 384-well cell culture plate as designated. The plates were covered with lid and placed in room temperature for 30 minutes without shaking and then were transferred plates into 37° C. 5% CO2 incubator overnight for cell attachment.
(§2) Compound preparation and treatment: Test compounds were received or dissolved at 30 mM stock solution and control compound Staurosporine was stored as 10 mM and 1 mM concentration. 45 uL of stock solution was transferred to a 384 pp-plate. 3 fold, 10-point dilution were performed via transferring 15 uL compound into 30 μL DMSO by using TECAN (EVO200) liquid handler. The plates were spun at room temperature at 1,000 RPM for 1 minute and shaken at a plate shaker for 2 minutes. […]
(§3) The plate from incubators were placed and equilibrated at room temperature for 15 minutes. […] 40 μL of CellTiter-Glo reagent were transferred into each well to be detected (at 1:1 to culture medium). Then the plates were placed at room temperature for 30 min followed by reading on EnSpire.
(§4) The inhibition activity was calculated following the formula below: […]
(§5) The IC50 were calculated by fitting the Curve using Xlfit (v5.3.1.3): […]

The subject of the next data set is ZR-75-1. Nature of the data set: Cytotoxicity assay by the CTG method, ZR-75-1. Format: cell-based. Particulars: Homo sapiens, ZR-75-1, Breast cancer, 72 h. Here is the method:
as §1, §2, §3, §4, §5

A further data set has as its system HL-60. Description: Cytotoxicity assay by the CTG method, HL-60. Format: cell-based. Particulars: Homo sapiens, HL-60, Leukemia, 72 h. Here is the method: as §1, §2, §3, §4, §5
The next data set deals with U87MG. Description: Cytotoxicity assay by the CTG method, U87MG. It is filed as cell-based. Particulars: Homo sapiens, U-87 MG, Glioblastoma, 72 h. The protocol: as §1, §2, §3, §4, §5
A further data set relates to A498. Nature of the data set: Cytotoxicity assay by the CTG method, A498. It is filed as cell-based. Particulars: Homo sapiens, A498, Kidney cancer, 72 h. Here is the method:
as §1, §2, §3, §4, §5

The subject of another data set is BT-474. Nature of the data set: Cytotoxicity assay by the CTG method, BT-474. It is filed as cell-based. Particulars: Homo sapiens, BT-474, Breast cancer, 72 h. Here is the method:
as §1, §2, §3, §4, §5

Another data set has as its system OVCAR-3. Description: Cytotoxicity assay by the CTG method, OVCAR-3. Format: cell-based. Particulars: Homo sapiens, OVCAR-3, Ovarian cancer, 72 h. Here is the method: as §1, §2, §3, §4, §5
A further data set has as its system BT474. Nature of the data set: Cell culture and cytotoxicity assay (CTG), BT474. Format: cell-based. Particulars: Homo sapiens, BT-474, BT474, exposure 96 hours. Here is the method: The assayed compounds each was dissolved in DMSO with a final concentration of 10 mM or 40 mM and stored at −20° C. Tumor cell lines A549 (7,000 cells/well), BT474 (12,000 cells/well), MDA-MB-468 (12,000 cells/well), and HCC1937 (6,000 cells/well) were seeded on 96-well plates. And the cells were pre-incubated at 37° C./5% CO2 for 24 hours. The cells were exposed to different concentrations of the assay compounds (from 400 μM to 782 nM, from 200 μM to 391 nM, from 100 μM to 196 nM, and from 50 μM to 98 nM) for the following time:
After incubation, 100 μL from each well was discarded and CTG base (Proega, G7571, 50 μL) was added and the mixture was agitated for 2 minutes. The mixtures were stored in a dark room for 10 minutes and the viability was analyzed with Multiskan microplate reader.

The subject of another data set is T-47D. Nature of the data set: Cytotoxicity assay by the CTG method, T-47D. Format: cell-based. Particulars: Homo sapiens, T47D, Breast cancer, 72 h. The protocol:
as §1, §2, §3, §4, §5

The subject of the next data set is U937. Nature of the data set: Cytotoxicity assay by the CTG method, U937. Format: cell-based. Particulars: Homo sapiens, U-937, U937, Lymphoma, 72 h. Here is the method: as §1, §2, §3, §4, §5
The subject of another data set is COLO205. Description: Cytotoxicity assay by the CTG method, COLO205. It is filed as cell-based. Particulars: Homo sapiens, COLO 205, COLO205, Colon cancer, 72 h. The protocol:
as §1, §2, §3, §4, §5

Data set [1] is described as follows: In vivo xenograft study, MDA-MB-468, mice weights. Particulars: MDA-MB-468 xenograft in BALB/c-nu mice, FIGS. 3 and 5. Here is the method:
MDA-MB-468 cells (human breast cancer) in its log growth phase were implanted in BALB/c-nu mice. When the tumor volume was approximately 50-150 mm^3, the mice were randomized into four groups, each include 8 mice. The four groups were treated with vehicle, Ref. 1, 4f, and Ref. 2, respectively, and the tumor sizes were measured two to three times each week and the mice were also weighted.

In the next data set the test system is SK-OV-3. Description: Cytotoxicity assay by the CTG method, SK-OV-3. Format: cell-based. Particulars: Homo sapiens, SK-OV-3, Ovarian cancer, 72 h. The protocol: as §1, §2, §3, §4, §5
The test system of another data set is WM-266-4. Nature of the data set: Cytotoxicity assay by the CTG method, WM-266-4. Particulars: Homo sapiens, WM-266-4, Melanoma, 72 h. Format: cell-based. The protocol: as §1, §2, §3, §4, §5
The next data set has as its system MCF-7. Nature of the data set: Cytotoxicity assay by the CTG method, MCF-7. Format: cell-based. Particulars: Homo sapiens, MCF7, MCF-7, Breast cancer, 72 h. Here is the method:
as §1, §2, §3, §4, §5

A further data set concerns LNCaP. Description: Cytotoxicity assay by the CTG method, LNCaP. It is filed as cell-based. Particulars: Homo sapiens, Prostate cancer, 72 h. The protocol: as §1, §2, §3, §4, §5
The test system of another data set is Calu-6. Nature of the data set: Cytotoxicity assay by the CTG method, Calu-6. It is filed as cell-based. Particulars: Homo sapiens, Calu-6, Lung cancer, 72 h. The protocol: as §1, §2, §3, §4, §5
The subject of the next data set is LoVo. Nature of the data set: Cytotoxicity assay by the CTG method, LoVo. Particulars: Homo sapiens, Colon cancer, 72 h. Format: cell-based. The protocol:
as §1, §2, §3, §4, §5

A short description of data set [2]: In vivo mouse model, Hep3B, mice weights. From the text:
Hep3B cells (human liver cancer) were also studied in a mouse model. […] FIG. 9.

For the next data set, the system named is HT29. Nature of the data set: Cytotoxicity assay by the CTG method, HT29. Format: cell-based. Particulars: Homo sapiens, HT-29, HT29, Colon cancer, 72 h. The protocol:
as §1, §2, §3, §4, §5

For another data set, the system named is MV-4-11. Description: Cytotoxicity assay by the CTG method, MV-4-11. Format: cell-based. Particulars: Homo sapiens, MV4-11, MV-4-11, Leukemia, 72 h. The protocol: as §1, §2, §3, §4, §5
A further data set concerns CaKi-1. Description: Cytotoxicity assay by the CTG method, CaKi-1. Particulars: Homo sapiens, CaKi-1, Kidney cancer, 72 h. Format: cell-based. The protocol:
as §1, §2, §3, §4, §5

The test system of the next data set is 786-O. Description: Cytotoxicity assay by the CTG method, 786-O. Format: cell-based. Particulars: Homo sapiens, 786-0, Kidney cancer, 72 h. Here is the method:
as §1, §2, §3, §4, §5

Consider `Cc1ccc(S(=O)(=O)Nc2nc3ccccc3nc2Nc2ccc3nsnc3c2)cc1F` [Compound 4f, N-[3-(benzo[1,2,5]thiadiazol-5-ylamino)-quinoxalin-2-yl]-3-fluoro-4-methyl-benzenesulfonamide], for which the IC50 with PC-3 is 6.05 µM; with ZR-75-1, 1.53 µM; in the data set on HL-60 it was 7.61 µM; with U87MG, 18 µM; in the data set on A498, 3.68 µM; in the data set with BT-474, 7.01 µM. The half-inhibitory concentration (IC50) was 6.68 µM in the data set with OVCAR-3; 12500 to 25000 nM in the data set with BT474; 5.74 µM in the data set on T-47D; 3.68 µM with U937; 2.99 µM with COLO205; 9.37 µM in the data set on SK-OV-3. Also, the IC50 in the data set on WM-266-4 stood at 9.1 µM; in the data set with MCF-7, 5.19 µM; in the data set with LNCaP, 3.2 µM; in the data set with Calu-6 it was 4.89 µM; in the data set with LoVo, 21.7 µM; with HT29, 2.44 µM. Moreover, the IC50 with MV-4-11 was determined as 6.8 µM; in the data set on CaKi-1 it was 13 µM; in the data set on 786-O, 5.74 µM. Also, the “weight changes of mice” value in data set [1] was “no significant weight changes”. For the same molecule, the weight changes entry is reported as “no difference in weight changes” in data set [2] (FIG. 9, 50 mg/Kg) and “no difference in weight changes” in [2] (FIG. 9, 100 mg/Kg).

Usually IC50 stands for the concentration at which inhibition is half-maximal. Low readings indicate higher potency, high ones lower potency.
